Reference: US12708641B2 (priority 2020, dated 2026)

Experiments:
Assay type in all cases: cell-based
[1] = test system: rat HEV replicon LA-B350/luc; assay: antiviral activity against rat HEV replicon LA-B350/luc in Huh7 cells (Gaussia luciferase); details: Huh-7, 72 h, 3 days, 50% reduction in Luc signal, two experiments
[2] = test system: HEV Genotype 3 replicon Kernow-C1 p6/luc; assay: antiviral activity against HEV Genotype 3 replicon Kernow-C1 p6/luc in Huh7 cells (Gaussia luciferase); details: Huh-7, 96 h, 4 days, 4PL model, two experiments, read-out: relative EC50
[3] = viability evaluation (MTS/PMS) of Kernow-C1 p6/luc RNA-transfected Huh7 cells, Example 3; details: human, highest tested concentration 50 μM, read-out: relative CC50
Description: For viability evaluation, medium was removed and cells were subsequently incubated with MTS/PMS solution (3-(4,5-dimethylthiazol-2-yl)-5-(3-carboxymethoxyphenyl)-2-(4-sulfophenyl)-2H-tetrazolium/phenazinemethosulfate), which is metabolized to produce a brown, water-soluble product that is quantified after 1 h at 37° C. by absorbance read-out at 498 nm. Obtained values are expressed as percentage of untreated RNA-transfected control condition.

[4] = viability evaluation (MTS/PMS) of replicon RNA-transfected Huh7 cells, Example 2; details: human, highest tested concentration 50 μM
From the text: Obtained values are expressed as percent inhibition of untreated RNA-transfected control condition.

Row | SMILES | EC50 [1] | EC50 [2] | CC50 [3] | CC50 [4]
1 | CCOc1nc(N)nc2c1ncn2[C@@H]1O[C@](F)(CO[P@](=O)(N[C@@H](C)C(=O)OC2CCCCC2)Oc2ccccc2)[C@@H](O)[C@@]1(C)F [Compound 1] | < 0.64 nM | 13 nM | ≤ 50000 nM | > 50000 nM
2 | CCOc1nc(N)nc2c1ncn2[C@@H]1O[C@](F)(COP(=O)(N[C@@H](C)C(=O)OC2CCCCC2)Oc2ccccc2)[C@@H](O)[C@@]1(C)O (stereo partly drawn) [Compound 2] | 8.9 nM | 11 nM | – | –
3 | CCOc1nc(N)nc2c1ncn2[C@@H]1O[C@](F)(COP(=O)(OCOC(=O)OC(C)C)OCOC(=O)OC(C)C)[C@@H](O)[C@@]1(C)F [Compound 3] | 9.9 nM | 12 nM | – | –
4 | CCOc1nc(N)nc2c1ncn2[C@@H]1O[C@](F)(COP(=O)(N[C@@H](C)C(=O)OC(C)C)Oc2ccccc2)[C@@H](O)[C@@]1(C)F (stereo partly drawn) [Compound 4] | 36 nM | 6.5 nM | – | > 50000 nM
5 | CCOc1nc(N)nc2c1ncn2[C@@H]1O[C@](F)(COP(=O)(OCOC(=O)OC(C)C)OCOC(=O)OC(C)C)[C@@H](O)[C@@]1(C)O [Compound 6] | 23 nM | 26 nM | – | –
6 | CC(C)OC(=O)[C@H](C)N[P@](=O)(OC[C@@]1(F)O[C@@H](n2ccc(=O)[nH]c2=O)[C@](C)(O)[C@@H]1O)Oc1ccccc1 [Compound 7] | 110 nM | 42 nM | – | –
7 | CCOc1nc(N)nc2c1ncn2[C@@H]1O[C@]2(F)CO[P@@](=O)(N[C@H](C)C(=O)OC(C)C)O[C@H]2[C@@]1(C)F [Compound 8] | 860 nM | 220 nM | – | –
8 | CC(C)OC(=O)OCOP(=O)(OCOC(=O)OC(C)C)OC[C@@]1(F)O[C@@H](n2ccc(=O)[nH]c2=O)[C@](C)(O)[C@@H]1O [Compound 9] | 4800 nM | > 50000 nM | – | –
9 | C=CCOP1(=O)OC[C@@]2(F)O[C@@H](n3cnc4c(OCC)nc(N)nc43)[C@](C)(F)[C@@H]2O1 (stereo partly drawn) [Compound 10] | 5700 nM | 1300 nM | – | > 50000 nM
10 | CC(C)OC(=O)OCOP(=O)(OCOC(=O)OC(C)C)OC[C@@]1(F)O[C@@H](n2ccc(=O)[nH]c2=O)[C@](C)(F)[C@@H]1O [Compound 11] | 7300 nM | 720 nM | – | –
